Entries after “also recorded” stand apart in the source; their conditions may differ. Like-named read-outs stand apart in the source and are kept apart here.
How the values were obtained:
[1] = Quantum chemical calculation of the Ca2+ ion changing process (Gaussian09, B3LYP/LANL2DZ); conditions: ratio of calculated RH values
Experimental: Since there is no appropriate analytical method for the measurement of the complex-forming properties of these compounds with sufficient accuracy, we determined the complex-forming constants compared to the calcium ion complexes with high level quantum chemical calculations. The calculations were performed using Gaussian09 software on B3LYP/LANL2DZ theoretical level. In course of the calculations frequency calculations were also performed from which thermodynamic data were also determined.
The ion binding capabilities to each of ions are compared to the calcium binding capabilities, which is shown by RH (relative complex-forming tendency).
The thermodynamic data (ΔE, ΔH, ΔG) were calculated with mathematical equations from the values of E, H and G counted on quantum chemical basis: ΔE[complex-M]=E[complex-M]+E[CaCl2.6H2O]−{E[complex-Ca]+E[MCl2.6H2O]} ΔH[complex-M]=H[complex-M]+H[CaCl2.6H2O]−{H[complex-Ca]+H[MCl2.6H2O]} ΔG[complex-M]=G[complex-M]+G[CaCl2.6H2O]−{G[complex-Ca]+G[MCl2.6H2O]}
The relative complex-forming constant (RG) compared to the Ca^2+ ion can be calculated with the following equation: […]
Since the quotient formation expectedly causes a loss of entropy coefficients, the following equation was used which is more practical due to the fluctuation of the calculated entropy coefficient: […]

[2] = Measurement of metal selectivity by HPLC-MS (ESI), ratio of metal adduct to Ca adduct signals; assay type: binding
Experimental: (§1) Therefore, the measurements of Ca—Sr ionselectivity were carried out with an AGILENT 6140 Octapol MS (mass spectrometer) equipped with an AGILENT 1200 HPLC. The ionization was carried out by using an electron-spray (ESI, MM-FS) soft ionization equipment with positive detection. During the measurements different complex-forming compounds of the formulas (P-1), P-2), (P-3) prepared with the synthesizes shown above and decorporol of the formula (XI) were added to stock solutions, then the solutions were measured with mass spectrometry.
(§2) The measuring of Ca—Sr ionselectivity was carried out with an AGILENT 6140 Octapol MS (mass spectrometer) equipped with an AGILENT 1200 HPLC. The ionization was carried out by using an electron-spray (ESI, MM-FS) soft ionization equipment with positive detection. The used field strength was 10000V, the spray temperature 220° C., Fragmentor: 70; Treshold: 500, stepsize 0.2 Da; Ionization Switch Delay: 0 ms; Polarity Switch Delay 300 ms; Gain: 1:0; Mass range: 100-1200 Da. Nitrogen gas was used. These parameters were obtained by optimization. The used HPLC column was a 30 mm long WATERS ACQUITY UPLC column with an inner diameter of 2.1 mm and filled with C18 packing of 1.8 um. The amounts of the injected samples were changed between 2-10 ul. The eluents used due to the appropriate ionization were as follows:
(§3) Eluent A: 0.395 g of NH4HCO3 dissolved in 1 l water+50 ml MeCN.
(§4) Solution A: 0.1 M Ca ion stock solution: 222.1 mg (2 mmol) of anhydrous CaCl2 are dissolved in 20 ml of distilled water.
Solution B: 0.1 M Sr ion stock solution: 533.5 mg (2 mmol) of SrCl2.6H2O are dissolved in 20 ml of distilled water.
(§5) 100 μl of A stock solution and to 100 μl of I, II, III or IV solutions 100 μl of B-G solution are added according to the Table below and the amount of the thus obtained samples are completed to 1 ml, then injected into the HPLC.
(§6) A minimal retention time of 0.75 minutes was registered in case of the tests with Decorporol. We registered the free complex-forming compound (M+H+DA), the calcium adduct (M−H^++38 Da) and the strontium complex (M−H^++86 Da) in every case. Due to the very similar chemical properties of the Ca ion and the strontium ion it is presumable that they behave similarly during ionization, therefore we have determined the selectivity compared to Ca ion by the ratio of the average mass spectrometry signals of Ca adducts to Sr adducts. In case of the measurements of the physiologically important and toxic metal ions the compound of formula (P-3) was used. The signal of the corresponding metal ion adduct was always well separated from the signal of the mother compound and from the signal of the Ca-adduct.

[3] = as above; assay type: binding; remark: listed apart in the source
[4] = as above; assay type: binding; conditions: for binding of Cu ion (in words): HPLC-MS
Experimental: as §1, §2, §3, §4
Solution C: 0.1 M Cu ion stock solution: 500.0 mg (2 mmol) of CuSO4.5H2O are dissolved in 20 ml of distilled water.
as §5, §6

[5] = as above; assay type: binding; conditions: for binding of Zn ion (in words): HPLC-MS
Experimental: as §1, §2, §3, §4
Solution D: 0.1 M Zn ion stock solution: 272.5 mg (2 mmol) of ZnCl2 are dissolved in 20 ml of distilled water.
as §5, §6

[6] = as above; assay type: binding; remark: listed apart in the source
Experimental: as §1
The measuring of Ca—Sr ionselectivity was carried out with an AGILENT 6140 Octapol MS (mass spectrometer) equipped with an AGILENT 1200 HPLC. The ionization was carried out by using an electron-spray (ESI, MM-FS) soft ionization equipment with positive detection. The used field strength was 10000V, the spray temperature 220° C., Fragmentor: 70; Treshold: 500, stepsize 0.2 Da; Ionization Switch Delay: 0 ms; Polarity Switch Delay 300 ms; Gain: 1:0; Mass range: 100-1200 Da. […]
A minimal retention time of 0.75 minutes was registered in case of the tests with Decorporol. […] Due to the very similar chemical properties of the Ca ion and the strontium ion it is presumable that they behave similarly during ionization, therefore we have determined the selectivity compared to Ca ion by the ratio of the average mass spectrometry signals of Ca adducts to Sr adducts. […]

[7] = as above; assay type: binding; conditions: for binding of Sn ion (in words): HPLC-MS; for M^2+/Ca^2+ rate: M = Sn
Experimental: as §1, §2, §3, §4
Solution E: 0.1 M Sn ion stock solution: 379.6 mg (2 mmol) of SnCl2 are dissolved in 20 ml of distillated water.
as §5, §6

[8] = as above; assay type: binding; conditions: for binding of Pb ion / palladium (in words): HPLC-MS; for M^2+/Ca^2+ rate / M^2+/Ca^2+ rate, peak of decarboxylated fragment (in brackets): M = Pd
Experimental: as §1, §2, §3, §4
Solution F: 0.1 M Pb ion stock solution: 217.0 mg […] of Pb(OOCCF3)2 are dissolved in 5 ml distilled water.
as §5, §6

[9] = Decarboxylation observed during the HPLC-MS measurements; assay type: physicochemical
Experimental: The decarboxylation, which is characteristic of decorporol, was shown also during the measurements.
as §2, §6
This process is well-known and leads to slow degradation of decorporol. The mono-decarboxylated and the double-decarboxylated derivatives are the main contaminants of decorporol and their solubility is very low in water, therefore beyond a certain concentration the complexes could precipitate.

[10] = mice, compound added intravenously, calcium remained; cited from earlier work
[11] = during HPLC-MS measurements with metal ions

Molecule	strontium binding affinity compared to the compound of formula (XI) [1]	MS peak of the free complex-forming compound compared with the peak of its Sr complex [2]	binding of strontium ion (in words) [2]	Sr^2+/Ca^2+ rate [3]	binding of Cu ion (in words) [4]	M^2+/Ca^2+ rate ([4]; M = Cu)	binding of Zn ion (in words) [5]	M^2+/Ca^2+ rate ([5]; M = Zn)	binding of Sn ion (in words) [7]	M^2+/Ca^2+ rate [7]	binding of Pb ion / palladium (in words) [8]	M^2+/Ca^2+ rate [8]	decarboxylation [9, 11]	other results
2-(2-{16-[(1,2-Dicarboxy-ethylcarbamoil)-methyl]-1,4,10,13-tetraoxa-7,16-diaza-cyclooctadec-7-yl}-acetylamino)-succinic acid [(P-2)]	approximately 4 fold	significantly lower; also recorded: considerably smaller	stronger than Ca ion	1.4	–	–	–	–	–	–	–	–	–	–
O=C(CN1CCOCCOCCN(CC(=O)NC(C(=O)O)C(=O)O)CCOCCOCC1)NC(C(=O)O)C(=O)O [(P-1), 2-(2-{16-[(Dicarboxymethyl-carbamoyl)-methyl]-1,4,10,13-tetraoxa-7,16-diaza-cyclooctadec-7-yl}-acetiyamino)-malonic acid]	more than 4 fold	significantly lower; also recorded: considerably smaller	–	1.25	–	–	–	–	–	–	–	–	–	–
O=C(O)CCC(NC(=O)CN1CCOCCOCCN(CC(=O)NC(CCC(=O)O)C(=O)O)CCOCCOCC1)C(=O)O (stereo not drawn) [(P-3), 2-(2-{16-[(1,3-Dicarboxy-propylcarbamoyl)-methyl]-1,4,10,13-tetraoxa-7,16-diaza-cyclooctadec-7-yl}-acetylamino)-pentanedioic acid]	–	significantly lower; also recorded: considerably smaller	strongest; also recorded: stronger than Ca ion	1.5	a little stronger than Ca ion; also recorded: slightly binds	1.1	does not bind	ca. 0	very strongly	100	very strongly	29	does not decarboxylate	binding of Fe ion (in words) ([6]; HPLC-MS): does not bind; M^2+/Ca^2+ rate ([6]; M = Fe): ca. 0
O=C(O)C(C(=O)O)N1CCOCCOCCN(C(C(=O)O)C(=O)O)CCOCCOCC1 [Decorporol, (7,16-bis-malonate)-1,4,10,13-tetraoxa-7,16-diazacyclooctadecane-bis-malonic acid]	–	–	–	1.2	a bit stronger than the compound of the formula of (P-3)	1.2	stronger than Ca	8	significantly less	22	significantly less	20	significant decarboxylation	MS peak of the free complex-forming compound compared with the peak of its Sr complex ([2]; listed as decorporol): worse; also recorded: lower; M^2+/Ca^2+ rate, peak of decarboxylated fragment (in brackets) ([4]; M = Cu): 1.5; binding of Zn ion (in words) ([5]; listed as decorporol): Good binding; also recorded: stronger than Ca ions; M^2+/Ca^2+ rate, peak of decarboxylated fragment (in brackets) ([5]; M = Zn): 4; M^2+/Ca^2+ rate, peak of decarboxylated fragment (in brackets) ([8]; first bracketed peak): 29; M^2+/Ca^2+ rate, peak of decarboxylated fragment (in brackets) ([8]; second bracketed peak): 40; decarboxylation ([9]; in case of Pb ion): very strong decarboxylation process; removal of strontium from the body [10]: removed selectively
